Experimental data taken from paper PMC4186413, “Identification of metabolic pathways and enzyme systems involved in the in vitro human hepatic metabolism of dronedarone, a potent new oral antiarrhythmic drug” (Pharmacology Research & Perspectives, 2014).

What was measured:
[1] = system: cryopreserved human hepatocytes in primary culture; assay: Unchanged drug disappearance / intrinsic metabolic clearance in primary cultures of cryopreserved human hepatocytes; format: in vitro ADME; details: for In vitro intrinsic hepatic clearance, Mean ± SD: mean of four hepatocyte preparations
Procedure: Cryopreserved human hepatocytes were plated on 48-well collagen-coated plastic plates in a chemically defined medium adapted from Isom and Georgoff ([1984]), consisting of a 50/50 (v/v) mixture of Ham F12/Williams E medium supplemented with 10% decomplemented fetal calf serum, 10 mg/L insulin, 0.8 mg/L glucagon and antibiotics (100 IU penicillin and 100 μg/mL streptomycin). After 4–6 h at 37°C in a 5% CO2 and 100% humidified atmosphere, period during which hepatocytes attached to the collagen-matrix, the plating medium was removed and replaced by the same serum-free culture medium supplemented with HEPES (3.6 g/L), ethanolamine (4 mg/L), transferrin (10 mg/L), linoleic acid albumin (1.4 mg/L), glucose (252 mg/L), sodium pyruvate (44 mg/L), ascorbic acid (50 mg/L), arginine (104 mg/L), and L-glutamine (0.7 g/L).
Experiments were performed in 48-well plastic plates coated with rat tail Collagen type I. Plates were seeded with 0.16 × 10^5 hepatocytes per well in a final volume of 0.2 mL and incubated at 37°C under a 95% humidified air and 5% CO2 atmosphere. After 3 h during which cells were allowed to attach, the medium was renewed with 0.1 mL serum-free medium. Then, the investigated drug or metabolic probe(s) were added directly to the incubation medium in the absence or the presence of inhibitors such as either ketoconazole as a specific and potent CYP3A inhibitor (3 μmol/L final concentration), clorgyline (0.25 μmol/L final concentration) as a potent MAO-A inhibitor or ABT as a potent but nonselective CYP isoforms inhibitor (1 mmol/L final concentration) (Fabre et al. [1988]; Bourrié et al. [1996]; Klieber et al. [2008]). Regardless of the final concentration investigated, the final solvent (DMSO) concentration never exceeded 0.2% (v/v).
To determine the metabolism of the different compounds (metabolic probes, dronedarone, N-debutyl-dronedarone, propanoic acid-dronedarone, phenol-dronedarone, and C-dealkyl-dronedarone), kinetic studies were performed over 0–24 h. For each time point, 0.1 mL of acetonitrile was added to the specific well for protein precipitation, and both extracellular medium and the cell fraction were scraped together. Cell extracts were transferred to a glass tube and stored at −20°C until analysis. Before analysis, cell homogenates were sonicated for a few seconds, homogenized and centrifuged at 6000 g for 10 min. Supernatant fluids were then analyzed for the different drugs and their specific metabolites.
LC/MS-MS analysis was performed using an Acquity UPLC System I-Class equipped with a Waters Acquity UPLC BEH C18 column (2.1 mm i.d. × 100 mm length, 1.7 μm particle size) coupled to a Xevo TQS mass spectrometer (all from Waters, Milford, MA) used in electrospray ion positive mode.
In human hepatocytes, the intrinsic in vitro metabolic clearances (Clint) were calculated using WinNonLin PK analysis software version 5.2. All disappearance kinetics data were fitted with a model using the following equation: [drawing 2] where ke is the elimination rate constant expressed in h^−1, and V is the incubation volume expressed in mL normalized to 10^6 hepatocytes. The equation was applied to the initial (linear) part of the concentration–time curve.
The kinetics of drug disappearance were investigated using four different cryopreserved human hepatocyte preparations in primary cultures following incubation with either dronedarone or its metabolites at a concentration of 5 μmol/L. Incubations were performed either in the absence, that is control conditions, or in the presence of enzyme system inhibitors such as 3 μmol/L ketoconazole (specific and potent inhibitor of CYP3A4/5), 1 mmol/L ABT (a potent and […] inhibitor of total CYPs), or 0.25 μmol/L clorgyline (a potent MAO-A inhibitor) (Dorris [1982]). Kinetic studies were performed over 24 h.

CYP2D6 = molecular target: T1, CYP2D6 (Homo sapiens, UniProt P10635); assay: Oxidation by recombinant human CYP2D6; format: in vitro ADME; details: for Percentage of oxidation (unchanged drug disappearance) by CYP2D6: 100 pmol/mL, 5 μmol/L, 30 min, NADPH
T1 construct: purchased BD Gentest (Woburn, MA); host or cells: baculovirus-infected insect cells
Text: Recombinant human CYPs (Supersomes™; BD Gentes, Woburn, MA: CYP1A1, CYP1A2, CYP2A6, CYP2B6, CYP2C8, CYP2C9, CYP2C18, CYP2C19, CYP2D6, CYP2E1, CYP3A4 and CYP3A5), FMOs (Supersomes™: FMO1, FMO3, FMO5), MAOs (Supersomes™: MAO-A and MAO-B), and UGTs (Supersomes™: UGT1A1, UGT1A3, UGT1A4, UGT1A6, UGT1A7, UGT1A8, UGT1A9, UGT1A10, UGT2B4, UGT2B7, UGT2B15, and UGT2B17) expressed in baculovirus-infected insect cells and control microsomes from insect cells infected with wild-type baculovirus were all obtained from BD Gentest (Woburn, MA).
For oxidative pathways, the assay mixture was composed of human liver microsomes (1 mg·m·L^−1) or microsomes of baculovirus-infected cells expressing human enzymes (100 pmol·mL^−1 for CYPs and 1 mg·mL^−1 for FMOs and MAOs), nicotinamide adenine dinucleotide phosphate reduced form (NADPH) (1 mmol/L), 100 mmol/L potassium phosphate (pH 7.4), and 5 μmol/L of the investigated compound dissolved in DMSO in a final volume of 500 μL.
The final concentration of DMSO in the reaction mixture was less than 1% (v/v). Initial rate conditions with respect to time and protein concentration for both the disappearance of unchanged drug and the formation of respective metabolites were established in preliminary studies. The enzyme reaction was initiated by addition of NADPH (10 mmol/L aqueous solution) to achieve a final concentration of 1 mmol/L for oxidative CYP- and FMO-dependent reactions or by the drug for MAO-dependent reactions, incubated at 37°C and stopped after 0–30 min by addition of one volume of ice-cold acetonitrile.
In human liver microsomes and recombinant isoforms, the percentage of metabolism was determined on the basis of unchanged drug disappearance, using the following equation [drawing 1] where UDt = 30 min represents the unchanged drug peak area after a 30-min incubation period and UDt = 0, the unchanged drug peak area at t = 0.
To identify the specific isoforms that are capable of oxidizing dronedarone and its metabolites, assays were performed using c-DNA-expressed isoforms belonging to CYP- (CYP1A1, -1A2, -2A6, -2B6, -C8, -2C9, -2C18, -2C19, -2D6, -2E1, -3A4, and -3A5), FMO- (FMO-1, -3, and -5) and MAO- (MAO-A and MAO-B) families.
Figure 5 Contribution of individual CYPs, FMOs and MAOs to the oxidation of dronedarone and its metabolites. […] Unchanged drugs were quantified by LC/MS-MS relative to the synthetic references as described in Materials and Methods. Data are expressed as the percentage of oxidation.

[2] = hepatocyte preparation BD-91, 5 μmol/L
[3] = hepatocyte preparation BD-296, 5 μmol/L
[4] = hepatocyte preparation HU-1359, 5 μmol/L
[5] = hepatocyte preparation IVT-IBG, 5 μmol/L

T1 sequence (P10635 whole entry): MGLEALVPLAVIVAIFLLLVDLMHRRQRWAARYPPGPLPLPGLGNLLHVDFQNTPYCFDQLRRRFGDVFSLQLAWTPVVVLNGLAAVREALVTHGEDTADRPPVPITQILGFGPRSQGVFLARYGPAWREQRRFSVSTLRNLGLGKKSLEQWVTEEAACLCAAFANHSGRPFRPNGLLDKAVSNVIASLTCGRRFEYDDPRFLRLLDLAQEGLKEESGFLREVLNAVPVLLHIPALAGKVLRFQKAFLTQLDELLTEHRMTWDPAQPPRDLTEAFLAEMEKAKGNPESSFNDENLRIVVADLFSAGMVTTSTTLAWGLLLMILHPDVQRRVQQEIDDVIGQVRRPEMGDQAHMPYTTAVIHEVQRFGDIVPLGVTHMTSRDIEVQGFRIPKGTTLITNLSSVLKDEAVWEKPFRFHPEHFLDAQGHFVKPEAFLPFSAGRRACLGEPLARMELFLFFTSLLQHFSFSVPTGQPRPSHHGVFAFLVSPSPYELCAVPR

Row | Compound | In vitro intrinsic hepatic clearance [1, 2] | In vitro intrinsic hepatic clearance [1, 3] | In vitro intrinsic hepatic clearance [1, 4] | In vitro intrinsic hepatic clearance [1, 5] | In vitro intrinsic hepatic clearance, Mean ± SD ([1]; 5 μmol/L) | Percentage of oxidation (unchanged drug disappearance) by CYP2D6 (CYP2D6) | Metabolite formed, as percent of initial dronedarone concentration, with CYP2D6 (CYP2D6; 5 μmol/L dronedarone, end of 30-min incubation) | Mean maximal concentration of metabolite formed ([1]; hepatocytes incubated with 5 μmol/L dronedarone, control conditions without inhibitors) | Drug metabolized within 6 h of incubation ([1]; 5 μmol/L, control conditions) | In vitro intrinsic hepatic clearance, Mean ± SD ([1]; 5 μmol/L, listed as phenol-dronedarone)
1 | CCCCN(CCCC)CCCOc1ccc(C(=O)O)cc1 [C-dealkyl-dronedarone] | 0.003 mL·h^−1·10^6 cells | 0.002 mL·h^−1·10^6 cells | 0.004 mL·h^−1·10^6 cells | 0.003 mL·h^−1·10^6 cells | 0.003 ± 0.001 mL·h^−1·10^6 cells |  |  |  |  | 
2 | CCCCNCCCOc1ccc(C(=O)c2c(CCCC)oc3ccc(NS(C)(=O)=O)cc23)cc1 [N-debutyl-dronedarone] | 0.18 mL·h^−1·10^6 cells | 0.10 mL·h^−1·10^6 cells | 0.10 mL·h^−1·10^6 cells | 0.08 mL·h^−1·10^6 cells | 0.13 ± 0.03 mL·h^−1·10^6 cells | 55% | less than 1% | around 0.6 μmol/L |  | 
3 | CCCCc1oc2ccc(NS(C)(=O)=O)cc2c1C(=O)c1ccc(OCCC(=O)O)cc1 [Propanoic acid-dronedarone] | 0.06 mL·h^−1·10^6 cells | 0.17 mL·h^−1·10^6 cells | 0.20 mL·h^−1·10^6 cells | 0.14 mL·h^−1·10^6 cells | 0.14 ± 0.05 mL·h^−1·10^6 cells |  |  |  |  | 
4 | CCCCc1oc2ccc(NS(C)(=O)=O)cc2c1C(=O)c1ccc(OCCCN(CCCC)CCCC)cc1.Cl [Dronedarone, N-(2-Butyl-3-(4-(3-(dibutylamino)propoxy)benzoyl)-5-benzofuranyl)methanesulfonamide, hydrochloride] | 0.49 mL·h^−1·10^6 cells | 0.58 mL·h^−1·10^6 cells | 0.14 mL·h^−1·10^6 cells | 0.10 mL·h^−1·10^6 cells | 0.33 ± 0.21 mL·h^−1·10^6 cells | 50% |  |  | more than 80% | 
5 | CCCCc1oc2ccc(NS(C)(=O)=O)cc2c1C(=O)c1ccc(O)cc1 [Phenol-dronedarone] | 0.44 mL·h^−1·10^6 cells | 0.70 mL·h^−1·10^6 cells | 0.57 mL·h^−1·10^6 cells | 0.75 mL·h^−1·10^6 cells | 0.62 ± 0.12 mL·h^−1·10^6 cells | 94% |  |  |  | 0.61 ± 0.12 mL·h^−1·10^6 cells
